Drawing on the NIST ThermoML archive (doi:10.1016/j.tca.2006.08.007), this text covers refractive index and mass density for three compounds.

Numbers after ± are expanded uncertainties.

Series [1] in a line: refractive index (Na D-line) (dimensionless). The following applies: 293.15 K; 101.33 kPa; Liquid; refractometer.
For series [2] the following is noted: 293.15 K; 101.33 kPa; Liquid; Vibrating tube method.

On to `CC#N` [acetonitrile], for which the refractive index (commonly a measure of how strongly the sample bends light) in series [1] was 1.3442 ± 0.0001. In addition, in series [2], the mass density – broadly, the mass of a sample divided by its volume – stood at 782.5 ± 0.2 kg/m3.
For `CCCCCCO` [hexan-1-ol], the refractive index in series [1] worked out at 1.418 ± 0.0002. Besides, the mass density in series [2] is reported as 818.7 ± 0.3 kg/m3.
In the case of `CCCCCO` [pentan-1-ol], the refractive index in series [1] is on record as 1.4098 ± 0.0003. Moreover, the mass density in series [2] turned out to be 815.1 ± 0.5 kg/m3.
